Measured values taken from patent publication US10149809B2, “Skin aging inhibitor and concentrate of resveratrol 3-O-α-glucoside” (priority 2014, dated 2018).
Converted amounts (≈) assume the structure as drawn.

Tests used:
Solubility in water = assay type: physicochemical; settings: water
Description: (§1) Approximately 5 mg each of resveratrol 3-O-α-glucoside, resveratrol (Tokyo Chemical Industry Co., Ltd.), and resveratrol 3-O-β-glucoside (Tokyo Chemical Industry Co., Ltd.) was weighed, approximately 1 mL of water was added thereto, and the mixture was soaked in a water bath at 25° C. under light-tight conditions, and incubated for 20 hours with occasional stirring. After 20 hours, each of the samples was filtered through a 0.45 μm centrifugal filter, and then the concentration of each of the components in the filtrate was analyzed using HPLC under the same conditions as those described in Production Example 1 above. The dissolved concentration (w/v %) in water at 25° C. was thus determined.

[1] = Storage stability in 30 vol % aqueous ethanol (coloration, residual content); assay type: physicochemical; settings: 2 mM in 30 vol % aqueous ethanol, 40° C., light-tight, 6 months; for Residual Content (%): HPLC
Description: Each of resveratrol 3-O-α-glucoside (produced in Production Example 1), resveratrol (Tokyo Chemical Industry Co., Ltd.), and resveratrol 4′-O-α-glucoside (produced in Production Example 1) was dissolved in a 30 vol % aqueous solution of ethanol to a concentration of 2 mM, and the solution was stored at 40° C. under light-tight conditions. The coloration of the solution after being stored for 6 months was visually observed. Further, absorbances at 430 nm of the solution before and after the storage were measured, and the residual amount of each of the components in the solution was analyzed using HPLC. HPLC was performed under the same conditions as those described in Production Example 1.

[2] = system: skin model (MEL-312B; MatTek); experiment: Melanogenesis suppressing effect in skin model (amount of melanin, visual observation); assay type: cell-based; settings: 0.2 wt % in PBS, 50 μL, 16 days; PBS control group = 100%
Description: Resveratrol 3-O-α-glucoside, resveratrol (Tokyo Chemical Industry Co., Ltd.), or resveratrol 3-O-β-glucoside (Tokyo Chemical Industry Co., Ltd.) was prepared into a 0.2 wt % solution or suspension with the addition of PBS, and the resulting solution or suspension was used as a test substance. A skin model (MEL-312B; MatTek) was used, and 50 μL of the test substance was added to the horny layer side of the skin model and cultured in a special medium (EPI-100NMM-113; MatTek) at 37° C. for 16 days. On days 2, 4, 7, 9, 11, and 14, the medium and the test substance were replaced with fresh ones. As a control group, the same operation was performed using PBS instead of the test substance.
After 16 days of culture, the skin model was visually observed, and the amount of melanin in the skin model was evaluated. The amount of melanin was measured using the following method. Initially, the collected skin model was subjected to enzymatic degradation by proteinase-K, and was subsequently homogenated in PBS containing 1% triton X-100. Melanin was then extracted by washing with 10% TCA and ethanol. Next, the extracted melanin was dissolved in 0.5 mL of 1N-NaOH containing 10% DMSO at 80° C. for 2 hours, and the amount of melanin was quantified by measuring absorbance at 470 nm.
Resveratrol 3-O-α-glucoside was prepared into a 0.2 wt % solution, a 0.1 wt % solution, or a 0.01 wt % solution with the addition of PBS. The resulting solution was used as a test substance, and the melanogenesis suppressing effect was evaluated using the same method as that of Example 1 above. […]

[3] = Solubility in solvent containing dipropylene glycol; assay type: physicochemical; settings: 25 °C, water, thermodynamic from solid
Description: as §1, with “Approximately 40” for “Approximately 5”, “approximately 70 mg” for “approximately 1 mL”, “of a solvent (whose composition is shown in Table 18) containing ethanol (Wako Pure Chemical Industries, Ltd.)” for “of water”, “for 15” for “for 20”, “After 15” for “After 20”, “%)” for “%) in water”
The solubility of resveratrol 3-O-α-glucoside was evaluated under the same conditions as those described in Example 18 above, except that a solvent (whose composition is shown in Table 22) containing dipropylene glycol (Asahi Glass Co., Ltd.) was used.

[4] = system: skin model (EPI-200X; MatTek); assay type: in vitro ADME, human; settings: human, 20 h, 0.2 wt %
Description: Using a three-dimensional human skin model, permeabilities of resveratrol 3-O-α-glucoside and resveratrol into the skin model when administered via the skin surface were compared.
Resveratrol 3-O-α-glucoside or resveratrol (Tokyo Chemical Industry Co., Ltd.) was prepared into a 0.2 wt % solution or suspension with the addition of PBS, and the resulting solution was used as a test substance. The skin model (EPI-200X; MatTek) was loaded into a special fixture (EPI-100-FIX; MatTek), and placed in the 6-well plate of the receiver. One-hundred microliters of the test substance were added to the horny layer side, and 5 mL of PBS was added to the receiver side. After being allowed to stand at 37° C. for 20 hours, the skin model was collected, and the surface of the skin model was washed well with PBS. The skin model after being washed was homogenized in PBS. After the homogenate was centrifuged, resveratrols in the supernatant were quantified using HPLC under the same conditions as described in Production Example 1 above, and the amount of resveratrols was converted into the equivalent of agly cones.

Structure (SMILES)	Dissolved Concentration (μg/mL) in Water (Solubility in water; 25° C., 20 hours)	Coloration: Difference between Absorbances at 430 nm (Δ A 430) before and after Storage [1]	Coloration: Visual Observation [1]	Residual Content (%) [1]	solubility thermodynamic at 20 h (Solubility in water; 25 °C, thermodynamic from solid)	Relative Amount of Melanin [2]	solubility thermodynamic at 15 h [3]	Concentration in the Skin Model (Value Converted into the Equivalent of Aglycones, μg/cm^2) [4]
OC[C@H]1O[C@H](Oc2ccc(C=Cc3cc(O)cc(O)c3)cc2)[C@H](O)[C@@H](O)[C@@H]1O [Resveratrol 4′-O-α-Glucoside, resveratrol 4′-O-α-glucoside]	150 µg/mL	0.21	slightly colored	86%				
Oc1ccc(C=Cc2cc(O)cc(O)c2)cc1 [Resveratrol, resveratrol]		1.36	strongly	60%	30 µg/mL (≈ 131 µM)	63%	30 µg/mL (≈ 131 µM)	7.5 μg/cm^2
